Here are results for nine compounds from ChEMBL document CHEMBL4196095, “Design and synthesis of novel pyrrolo[2,3-a]carbazoles: 7-Chloro-2-oxo-3a-(2'-oxo-2',3'-dihydro-1'H-indol-3'-yl)-2,3,3a,4,5,10-hexahydro-pyrrolo[3,2-a]carbazole-1-carbonitrile as an efficient anticancer agent” (Eur J Med Chem, 2018).

SMILES strings stand for the structures. pIC50: −log10 of the molar value. Values after ≈ are worked out from the molar mass of the structure shown.

The test system of one assay is HCT-15. Put plainly: Cytotoxicity against human HCT15 cells assessed as reduction in cell viability after 24 hrs by MTT assay. Format: functional, cell-based. Conditions: HCT-15, 24 h.
Assay [1] is described as follows: Antioxidant activity assessed as DPPH radical scavenging activity incubated under dark condition for 30 mins. Type of assay: functional.

Consider `Cc1cccc2c3c([nH]c12)C1=C(C#N)C(=O)NC1(C1C(=O)Nc2ccccc21)CC3` (configuration not stated), for which the negative logarithm of the IC50 (pIC50) with HCT-15 was 4.50. Moreover, in assay [1], the IC50 came to 28.918 µg/mL (≈ 73.3 µM).

Regarding `Cc1cccc2c3c([nH]c12)C1=C(C#N)C(=O)NC1(C1c2ccccc2-c2nc4ccccc4nc21)CC3` (configuration not stated), in the assay with HCT-15, the pIC50 was 4.63. The IC50 in assay [1] is 33.936 µg/mL (≈ 70.8 µM).

For `Cc1ccc2[nH]c3c(c2c1)CCC1(C2c4ccccc4-c4nc5ccccc5nc42)NC(=O)C(C#N)=C31` (configuration not stated), the pIC50 with HCT-15 is 4.44. For the same compound, the IC50 in assay [1] stood at 42.31 µg/mL (≈ 88.2 µM).

Take `Cc1cccc2c3c([nH]c12)C1=C(C#N)C(=O)NC1(C1C(=O)c2cccc4cccc1c24)CC3` (configuration not stated): the pIC50 in the assay on HCT-15 was 4.33. Further, the IC50 in assay [1] was greater than 100 µg/mL.

Take `Cc1ccc2[nH]c3c(c2c1)CCC1(C2C(=O)Nc4ccccc42)NC(=O)C(C#N)=C31` (configuration not stated): the pIC50 with HCT-15 was 4.32. In assay [1], the IC50 was determined as 41.934 µg/mL (≈ 106 µM).

As to `Cc1ccc2c3c([nH]c2c1)C1=C(C#N)C(=O)NC1(C1C(=O)Nc2ccc(Cl)cc21)CC3` (configuration not stated), the pIC50 with HCT-15 was 4.80. Besides, the IC50 in assay [1] turned out to be 13.931 µg/mL (≈ 32.5 µM).

For the compound `Cc1ccc2c3c([nH]c2c1)C1=C(C#N)C(=O)NC1(C1c2ccccc2-c2nc4cc(C)c(C)cc4nc21)CC3` (configuration not stated), the pIC50 in the assay with HCT-15 is 4.30. Moreover, the IC50 in assay [1] turned out to be 40.037 µg/mL (≈ 78.9 µM).

For the compound `Cc1ccc2c3c([nH]c2c1)C1=C(C#N)C(=O)NC1(C1C(=O)c2cccc4cccc1c24)CC3` (configuration not stated), in the assay with HCT-15, the pIC50 is 4.50. For the same compound, the IC50 in assay [1] came out at 28.251 µg/mL (≈ 65.8 µM).

Turning to `O=C1O[C@H]([C@@H](O)CO)C(O)=C1O` [ASCORBIC ACID], the IC50 in assay [1] came out at 13.228 µg/mL (≈ 75.1 µM).
